The text below walks through data of US7888357B2, “Anti-inflammatory and protein kinase inhibitor compositions and related methods for downregulation of detrimental cellular responses and inhibition of cell death” (Northwestern University, priority 2001, dated 2011).

One series has as its system BV-2 microglial cells. Briefly: Cell-based screen for inhibition of LPS-stimulated NO release (Griess assay). The settings on record: LPS-stimulated BV-2 cells, 24 hr, nitrite in conditioned media. Further details: species or system murine. The method, then: FIG. 1. Cell-based screen for inhibition of LPS-stimulated NO release. […] Inhibition is expressed as percent control, where the control is the NO accumulation from cells stimulated with LPS alone.
The rationale for using BV-2 cells in high throughput screening was the paucity of well-characterized human microglial cell lines, and the relevant activation responses and signaling pathways reflect those seen in human and rodent primary microglial cultures. Compounds were tested for their effects on NO accumulation in conditioned media of LPS-stimulated BV-2 cells by measurement of nitrite production by the Griess assay as a read-out for iNOS activity, as described previously. Stock solutions of compounds were prepared in dimethylsulfoxide (DMSO) or in water. When stock solutions were prepared in DMSO, control wells contained the same final concentration of DMSO as the compound-containing wells. […] Solutions of compounds for cell treatments were diluted to a 10× final concentration by dilution of stock solutions in αMEM media. The commercially available drugs tested were: compound 5 (KN93 from Alexis); compound 6 (pyrrolidinedithiocarbamate or PDTC from Sigma), compound 7 (SB203580 from Alexis Corporation), compound 8 (PD98059 from Alexis Corporation), and compound 9 (UO126 from Cell Signaling). […] Respectively, Western blots of cell lysates were done with the following antibodies: monoclonal anti-iNOS (1:1000 dilution, Transduction Labs); polyclonal anti-rat IL-1β (1:1000 dilution, R&D Systems, Inc.); monoclonal anti-glial fibrillary acidic protein (GFAP) (1:[…] dilution, Sigma); polyclonal anti-rat alioE (1:15,000 dilution) prepared as described; polyclonal anti-COX-2 (1:500 dilution) and monoclonal anti-phosphoATF2 (1:1000 dilution) from Santa Cruz Biotechnology, polyclonal anti-phosphoCREB (1:1000 dilution), and polyclonal anti-phosphop38 MAPK (1:1000 dilution). Reconstituted enzyme assays were done as described s. The sources of protein kinases were: bovine heart PKA from Promega, rat brain PKC from Calbiochem, rat CaMKII from New England Biolabs, chicken gizzard MLCK prepared as described, and a p38 MAP kinase kit containing recombinant Xenopus p38-MAPK and its human substrate from Upstate Biotechnology. The catalytic domains of these protein kinases retain a high level of amino acid sequence identity across mammalian species, consistent with the lack of documented major differences across species for the in vitro catalytic activity of a given kinase.
FIG. 4. Cell-based screen for functional effects of synthetic compounds on LPS-stimulated NO release from BV-2 cells. BV-2 cells were incubated for 24 hr with LPS (500 ng/ml) in the presence of increasing concentrations of: A) MW01-070C; B) MW01-026Z; C) MW01-118Z; D) MW01-119Z; E) MW01-051Z; F) MW01-160Z; G) MW01-196A; H) MW01-024Z; I) SB203580; J) PDTC; K) U0126; L) PD98059. The nitrite levels in conditioned media were determined. Inhibition is expressed as percentage of control values, where the control is the nitrite level in cells stimulated with LPS alone.
Compounds were tested for their effects on NO production by LPS-stimulated BV-2 cells as previously described [Mirzoeva, S., Koppal, T., Petrova, T. V., Lukas, T. J., Watterson, D. M., and Van Eldik, L. J. (1999) Brain Res. 844, 126-134]. The levels of nitrite, a stable NO metabolite, in conditioned media were determined by the Griess assay as previously described [Hu, J., Castets, F., Guevara, J. L., and Van Eldik, L. J. (1996) J. Biol. Chem. 271, 2543-2547]. Stock solutions of compounds were prepared in DMSO or in water. When stock solutions were prepared in DMSO, control wells contained the same final concentration of DMSO as the compound-containing wells. Solutions of compounds for cell treatments were diluted to a 10× final concentration by dilution of stock solutions of drugs in αMEM media.

The target in series [1] is death associated protein kinase (DAPK) (Homo sapiens, UniProt P53355). As to the kind of experiment: Enzyme assay, DAPK. Type of series: biochemical. The settings on record: read-out: DAPK IC50. The method, then: Therefore, compound MW01-026Z was selected as a starting point for variations on component A (Table 6). […] However, none of the A variations appeared to improve the activity and selectivity profile of CompoundMW01-026Z. (For purposes of illustration, only, component G was maintained throughout as an acyl moiety, while component R2 was varied as shown. All such compositions are available using the synthetic techniques described herein. Enzyme assays were conducted per procedures described elsewhere herein.) A more comprehensive structure activity relationship is summarized in Table 7, below.
With reference to the compositions of Table 3 and the enzyme assay techniques described elsewhere herein, Table 7 provides structural activity relationships observed, in accordance with this invention.

The subject of the next series is cell culture. Briefly: Cytotoxicity in cell culture. The class given is cell-based. The settings on record: over the entire dose range of inhibitor. The source says: The inhibition of iNOS and IL-1β production by MW01-070C, however, is not limited to LPS stimulation. […] The rationale for examination of Aβ stimulation is its involvement as an initiating event in models of AD initiation and progression. The stimulation by Aβ is seen (FIG. 6) with preparations of the Aβ peptide (see Experimental Procedures) that are known to have neurotoxic activity [Hu, J., Akama, K. T., Krafft, G. A., Chromy, B. A., and Van Eldik, L. J. (1998) Brain Res. 785, 195-206; Lambert, M. P. Barlow, A. K., Chromy, B. A., Edwards, C., Freed, R., Liosatos, M., Morgan, T. E., Rozovsky, I., Trommer, B., Viola, K. L., Wals, P., Zhang, C., Finch, C. E., Kraffk, G. A., and Klein, W. L. (1998) Proc. Natl. Acad. Sci. USA 95, 6448-6453]. The rationale for examination of S100 stimulation is its presence as an astrocyte protein that can function as an autocrine and paracrine cytokine, and its increased production in AD and other neuroinflammatory related disorders [Griffin, W. S. T., Stanley, L. C., Ling, C., White, L., MacLeod, V., Perrot, L. J., White, C. L., III, and Araoz, C. (1989) Proc. Natl. Acad. Sci. USA 86, 7611-7615; Hu, J., Castets, F., Guevara, J. L., and Van Eldik, L. J. (1996) J. Biol. Chem. 271, 2543-2547; Donato, R. (1999) Biochim. Biophys. Acta 1450, 191-231; Van Eldik, L. J., and Griffin, W. S. T. (1994) Biochim. Biophys. Acta 1223, 398-403]. […]

Sequence of death associated protein kinase (DAPK) (P53355 whole entry, species assumed): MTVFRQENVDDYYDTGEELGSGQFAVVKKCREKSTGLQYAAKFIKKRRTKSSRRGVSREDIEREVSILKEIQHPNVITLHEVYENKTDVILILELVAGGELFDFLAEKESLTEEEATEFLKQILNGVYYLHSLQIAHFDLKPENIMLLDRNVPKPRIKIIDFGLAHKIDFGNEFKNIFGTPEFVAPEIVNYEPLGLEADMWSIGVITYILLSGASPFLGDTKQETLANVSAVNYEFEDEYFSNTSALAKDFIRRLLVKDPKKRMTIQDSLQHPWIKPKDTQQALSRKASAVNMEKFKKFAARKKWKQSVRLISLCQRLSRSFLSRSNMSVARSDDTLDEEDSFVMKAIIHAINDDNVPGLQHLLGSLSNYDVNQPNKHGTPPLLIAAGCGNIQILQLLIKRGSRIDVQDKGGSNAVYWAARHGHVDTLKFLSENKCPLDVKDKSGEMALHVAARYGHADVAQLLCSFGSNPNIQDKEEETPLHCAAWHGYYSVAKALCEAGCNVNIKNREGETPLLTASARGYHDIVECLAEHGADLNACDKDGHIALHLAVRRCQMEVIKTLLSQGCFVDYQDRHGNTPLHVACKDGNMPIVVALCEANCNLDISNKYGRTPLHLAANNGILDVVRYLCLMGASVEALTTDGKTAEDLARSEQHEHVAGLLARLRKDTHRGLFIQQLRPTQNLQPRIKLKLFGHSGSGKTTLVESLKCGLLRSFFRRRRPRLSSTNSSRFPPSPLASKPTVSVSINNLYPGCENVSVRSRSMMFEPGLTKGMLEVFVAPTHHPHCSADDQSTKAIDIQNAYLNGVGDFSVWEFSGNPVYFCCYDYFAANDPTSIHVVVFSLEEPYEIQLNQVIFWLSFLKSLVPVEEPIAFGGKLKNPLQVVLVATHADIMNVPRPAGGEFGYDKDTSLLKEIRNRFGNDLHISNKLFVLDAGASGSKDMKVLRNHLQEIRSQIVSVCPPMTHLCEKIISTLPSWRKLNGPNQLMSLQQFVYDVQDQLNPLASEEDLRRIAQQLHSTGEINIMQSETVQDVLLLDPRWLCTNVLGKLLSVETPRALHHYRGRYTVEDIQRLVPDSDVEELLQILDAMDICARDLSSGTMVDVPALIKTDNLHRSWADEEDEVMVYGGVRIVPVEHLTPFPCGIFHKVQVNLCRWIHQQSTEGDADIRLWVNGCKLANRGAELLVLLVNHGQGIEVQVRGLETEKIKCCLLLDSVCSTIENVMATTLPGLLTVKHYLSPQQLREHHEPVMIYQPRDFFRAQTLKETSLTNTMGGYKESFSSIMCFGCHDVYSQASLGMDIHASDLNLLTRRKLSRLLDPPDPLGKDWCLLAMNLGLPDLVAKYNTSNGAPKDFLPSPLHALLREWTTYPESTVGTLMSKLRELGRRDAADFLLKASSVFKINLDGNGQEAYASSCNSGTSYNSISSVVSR

Turning to `N=c1cc2c(nn1CCCCCCCCCCC(=O)N1CCN(c3ncccn3)CC1)-c1ccccc1CC2` [MW01-070C], the figures for the “inhibition of NO accumulation by activated glia” value in the series with BV-2 microglial cells and in the series on BV-2 microglial cells (listed as 1) were “more effective” and “most active compound”, respectively. Moreover, in series [1], the IC50 was in the range of 80 to 100 µM. The “cytotoxicity in cell culture” value with cell culture is “no evidence of cytotoxicity”.
